Experiment [1] has as its target hHexA/B. Nature of the experiment: hHexA/B inhibition, fluorogenic 4MU-NAG substrate. The experiment is classed as biochemical, human. The settings on record: for Ki: read-out: Ki hHex A/B.
In a further experiment the target is T1, hOGA (Homo sapiens, UniProt O60502).
T1 construct: made in house
T1 sequence (O60502 1-916): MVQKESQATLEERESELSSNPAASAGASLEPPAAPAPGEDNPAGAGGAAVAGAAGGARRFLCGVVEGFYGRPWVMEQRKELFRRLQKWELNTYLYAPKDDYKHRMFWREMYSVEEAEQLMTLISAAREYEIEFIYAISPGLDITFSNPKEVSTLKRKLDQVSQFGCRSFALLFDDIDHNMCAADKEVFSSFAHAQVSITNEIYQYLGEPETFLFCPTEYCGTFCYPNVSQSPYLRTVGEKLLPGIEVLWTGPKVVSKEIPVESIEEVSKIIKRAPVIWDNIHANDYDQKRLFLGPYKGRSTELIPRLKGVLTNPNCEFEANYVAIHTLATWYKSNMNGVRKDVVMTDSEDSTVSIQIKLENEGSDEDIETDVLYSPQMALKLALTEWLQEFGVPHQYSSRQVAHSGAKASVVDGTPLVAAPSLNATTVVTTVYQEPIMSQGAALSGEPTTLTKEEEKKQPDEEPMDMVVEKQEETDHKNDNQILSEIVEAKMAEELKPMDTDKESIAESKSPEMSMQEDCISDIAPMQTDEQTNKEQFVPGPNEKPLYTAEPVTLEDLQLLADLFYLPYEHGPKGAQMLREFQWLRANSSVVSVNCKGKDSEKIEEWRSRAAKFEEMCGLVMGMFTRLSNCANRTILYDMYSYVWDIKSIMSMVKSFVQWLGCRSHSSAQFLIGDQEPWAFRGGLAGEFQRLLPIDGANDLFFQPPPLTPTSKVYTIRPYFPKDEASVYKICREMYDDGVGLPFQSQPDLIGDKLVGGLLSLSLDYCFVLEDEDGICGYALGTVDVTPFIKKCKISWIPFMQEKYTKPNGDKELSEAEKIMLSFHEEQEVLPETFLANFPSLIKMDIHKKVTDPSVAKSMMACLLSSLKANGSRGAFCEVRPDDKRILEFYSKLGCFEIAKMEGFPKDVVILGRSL
The experiment can be described thus: hOGA steady-state kinetics, fluorogenic assay, competitive inhibition fit. It is filed as biochemical.

Experiment [2] has as its target T2, endogenous hOGA (Homo sapiens, UniProt O60502).
T2 construct: activity on endogenous hOGA in a cell-based assay with HEK293 cells; endogenous in cells; host or cells: HEK293
T2 sequence (O60502 1-916): T1 sequence (O60502 1-916)
Nature of the experiment: O-GlcNAc microscopy assay (RL2 immunostaining, IN Cell Analyzer). It is filed as cell-based. The settings on record: HEK293 cells, 6 hr, normalized over DAPI; read-out: EC50 total O-GlcNAc levels (microscopy assay). As to the method: (§1) The novel GlcNAcstatin derivatives were investigated for their activity on endogenous hOGA in a cell-based assay with HEK293 cells. […] Furthermore, we determined the EC50 of GlcNAcstatins G and H by O-GlcNAc microscopy assay (Figure 3B; see Figure S1 available online). Elevated total O-GlcNAc levels in HEK293 cells were quantified and normalized over a reference DAPI signal.
For the microscopy studies, HEK293 cells were seeded in clear flat-bottom 96 well assay plates (Corning 3340) and grown for 12 hr at 37°C under 5% CO2. Cells were treated with concentrations of GlcNAcstatins G and H (1% final DMSO concentration) for 6 hr. Cells were washed twice with 50 μl PBS and fixed in 3.7% formaldehyde for 10 min at 37°C. After washing with TBST (0.1% Triton X-100) and permeabilized for further 10 min, the cells were blocked with 2% BSA and 0.1% normal donkey serum in TBST for 1 hr at RT, followed by washing twice with TBST. Cells were immunostained with the RL2 O-GlcNAc antibody (1/500) for 12 hr at 4°C and fluorescent secondary (1/500) for 1 hr at RT. Cells were further washed twice with TBS before incubation with DAPI (5 μg/ml) and CellMask (1/25000). Cells were washed twice with TBS and stored in 50 μl PBS. Images were taken and analyzed with the IN Cell Analyzer 1000 system (GE Healthcare).

Experiment [3] addresses hHexA/B. The settings on record: read-out: Ki hHex A/B; cited from earlier work.
The target in experiment [4] is T2, endogenous hOGA. Nature of the experiment: Cellular O-GlcNAcylation western blot (CTD110.6 antibody), densitometry. It is filed as cell-based. The settings on record: HEK293 cells, 6 hr; for EC50: densitometry, read-out: EC50 increase of cellular O-GlcNAcylation (western blot). As to the method: as §1
For the O-GlcNAc western blots, HEK293 cells were cultured and treated with GlcNAcstatin derivatives as described previously ([Dorfmueller et al., 2009]). Cell lysates were separated by SDS PAGE, and O-GlcNAcylation was detected by western blotting with the anti-O-GlcNAc CTD110.6 antibody and quantified ([Dorfmueller et al., 2009]). To calculate the EC50 values of GlcNAcstatins C, F, and G, the data, background corrected with the untreated cells, were plotted against the inhibitor concentrations using the program GraphPad Prism (http://www.graphpad.com).

The target in experiment [5] is T3, CpOGA-wild-type (Clostridium perfringens, UniProt Q0TR53). Nature of the experiment: biochemical. Also noted: species or system C. perfringens.
T3 sequence (Q0TR53 31-624 limits assumed): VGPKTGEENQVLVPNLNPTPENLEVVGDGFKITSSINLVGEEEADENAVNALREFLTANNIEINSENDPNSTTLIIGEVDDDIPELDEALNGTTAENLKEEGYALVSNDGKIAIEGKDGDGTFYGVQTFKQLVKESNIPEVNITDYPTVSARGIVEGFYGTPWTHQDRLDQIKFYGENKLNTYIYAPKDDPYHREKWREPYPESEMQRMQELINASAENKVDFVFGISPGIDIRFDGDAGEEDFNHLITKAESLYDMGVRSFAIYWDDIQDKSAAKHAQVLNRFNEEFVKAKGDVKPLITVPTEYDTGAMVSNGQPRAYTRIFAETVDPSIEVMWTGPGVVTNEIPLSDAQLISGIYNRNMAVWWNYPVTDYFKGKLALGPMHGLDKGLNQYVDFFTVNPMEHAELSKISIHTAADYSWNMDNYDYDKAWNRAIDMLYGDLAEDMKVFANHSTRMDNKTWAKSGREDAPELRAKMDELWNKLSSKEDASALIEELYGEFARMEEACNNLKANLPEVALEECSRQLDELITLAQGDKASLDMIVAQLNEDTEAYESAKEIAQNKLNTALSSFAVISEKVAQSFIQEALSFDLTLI
Experiment [6] concerns the target T3, CpOGA-wild-type. The settings on record: cited from earlier work.

Read-outs that look alike come from different tables or passages of the source. A value given as a limit tells only on which side of the number the result lay.

The EC50 is the concentration needed to bring the measured effect to its halfway point. One may read the IC50 as the concentration that inhibits the measured activity by half. The low end stands for greater potency, the high end for weaker potency.

`CCCCC(=O)N[C@H]1c2nc(CCc3ccccc3)cn2[C@H](CO)[C@@H](O)[C@@H]1O` [GlcNAcstatin H]: the Ki turned out to be 100 ± 30 µM on hHexA/B [1] (Cheng-Prusoff, approximate values obtained after including an artificial 100% inhibition point (footnote d)) and 2.6 ± 0.3 nM on hOGA (physiological pH 7.3). Moreover, at hOGA (ratio of Ki hHexA/B to Ki hOGA), the “Selectivity (hHexA/B/hOGA)” value was 35,000. Moreover, the EC50 on endogenous hOGA [2] was 42 nM.

As to Thiamet-G, the Ki on hHexA/B [3] is 750 µM.

In turn, `C=CC=CC(=O)NC1c2nc(CCc3ccccc3)cn2C(CO)C(O)C1O` (stereo not drawn) [GlcNAcstatin G] returned an IC50 with hHexA/B [1] of roughly 7 mM. Moreover, the Ki at hHexA/B [1] was greater than 3700 µM; at hOGA (physiological pH 7.3), 4.1 ± 0.7 nM; on CpOGA-wild-type [5], 7.8 ± 0.7 pM. In addition, the EC50 on endogenous hOGA [2] was 3 nM; at endogenous hOGA [4] it was 20 nM. For the same compound, the “concentration in culture media inducing maximum levels of O-GlcNAcylation” value at endogenous hOGA [4] (western blot) is on record as 100 nM.

Consider `O=C(CCS)N[C@H]1c2nc(CCc3ccccc3)cn2[C@H](CO)[C@@H](O)[C@@H]1O` [GlcNAcstatin F], for which the figures for the Ki at hHexA/B [1], at hOGA (physiological pH 7.3) and on CpOGA-wild-type [5] were 11 ± 0.6 µM, 11.2 ± 1.4 nM and 3.2 ± 0.2 pM, respectively. In addition, the EC50 on endogenous hOGA [4] worked out at 290 nM.

Regarding `CC(C)C(=O)N[C@H]1c2nc(CCc3ccccc3)cn2[C@H](CO)[C@@H](O)[C@@H]1O` [GlcNAcstatin C], the Ki was 0.6 ± 0.1 µM on hHexA/B [1], 2.9 nM on hOGA (pH 6.6 (maximum potency)), 3.2 ± 0.9 nM at hOGA (physiological pH 7.3) and 4.6 ± 0.2 pM at CpOGA-wild-type [6]. In addition, the “pH optimum of hOGA inhibition” value at hOGA (McIlvaine buffer, pH range 4.9–8.1, 1/Ki versus pH) was found to be 6.6. Moreover, at endogenous hOGA [4], the EC50 stood at 20 nM.

`CC(=O)N[C@H]1/C(=N/OC(=O)Nc2ccccc2)O[C@H](CO)[C@@H](O)[C@@H]1O` [PUGNAc, reference compound]: the Ki on CpOGA-wild-type [5] is 5400 ± 400 pM; at hHexA/B [3], 0.036 µM.
